Measured values reported in US5635391A, “Isolated DNA encoding a nitrilase polypeptide, hosts containing, and expression thereof optionally assisted by a E. coli GroE chaperone polypeptide” (priority 1992, dated 1997).

Experiments:
purified nitrilase = molecular target: T1, purified nitrilase (Comamonas testosteroni, UniProt Q59329); experiment: Relative activity of the purified nitrilase on various nitriles; assay type: biochemical, Comamonas testosteroni sp.; conditions: acetate buffer 10 mM, pH 4; substrate 10 mM; 25° C.
T1 construct: about 280 kDa oligomer of about 38 kDa subunits
Method: The activities of the purified nitrilase were measured on adiponitrile, 5-cyanovaleramide, 5-cyanovaleric acid, benzonitrile, propionitrile and acrylonitrile.
COMMON CONDITIONS: acetate buffer=10 mM, pH 4; substrate=10 mM; volume=3 ml; T=25° C.; reaction time=1 or 3 h; proteins: from 5 to 30 μg/ml.

E. coli TG1 pXL2158 = experiment: Nitrilase activity of recombinant strain E. coli TG1 pXL2158; assay type: cell-based; conditions: DW 1.25 g/l; 1 ml; pH 7.0; substrate 50 mM
Method: (§1) The activities of these strains, induced or non-induced, are measured on adiponitrile and 5-cyanovalerate at different pH values and are compared with the negative control strains: E. coli TG1, E. coli TG1 (pXL2035) and Pseudomonas putida G2081.
(§2) The cultures are carried out under the conditions described in Table 4. During the exponential growth phase, one of the two cultures of the recombinant strain is induced with 1 mM IPTG; after 2 h at 37° C., this culture is treated.
(§3) The conditions of the specific activity measurements and the results are collated in Table 5.
(§4) COMMON CONDITIONS: [substrate]=50 mM; T=25° C.; buffer 50 mM; kinetics over 90 min for 1 to 3 and over 120 min for 4 to 8.
(§5) ABBREVIATIONS: W=whole cells; S=sonicated cells; Ua=μmols of cyanovalerate produced/h; Ub=μmols of adipate produced/h; AdN=adiponitrile; CVA=5-cyanovalerate. DW=dry weight.

E. coli TG1 pXL2087 = experiment: Nitrilase activity of recombinant strain E. coli TG1 pXL2087; assay type: cell-based; conditions: substrate 50 mM
Method: as §1, §2, §3, §4, §5

P. putida G2081 pXL2169 = experiment: Nitrilase activity of recombinant strain P. putida G2081 pXL2169; assay type: cell-based, Pseudomonas putida; conditions: no IPTG; whole cells; DW 0.25 g/l; 1 ml; pH 7.0; substrate 50 mM
Method: as §1, §2, §3, §4, §5

E. coli TG1 = experiment: Nitrilase activity of control strain E. coli TG1; assay type: cell-based; conditions: no IPTG, whole cells, DW 15.5 g/l, 1 ml, substrate 50 mM, 25° C.
Method: as §1, §2, §3, §4, §5

E. coli TG1 pXL2035,2158 = experiment: Nitrilase activity of recombinant strain E. coli TG1 pXL2035,2158; assay type: cell-based; conditions: DW 0.2 g/l; 1 ml; pH 7.0; substrate 50 mM
Method: as §1, §2, §3, §4, §5

E. coli PXL2158 + 2035 [1] = experiment: Hydrolysis of methiononitrile with E. coli PXL2158 + 2035 in suspension; assay type: cell-based; conditions: for Initial specific activity: whole cells, DW 1.4 g/l, pH 7, 28° C.
Method: (§6) The recombinant strains used in this example are those from E. coli TG1, integrating the plasmids PXL2158 and PXL2035 described above and containing the nitrilase gene of Comamonas testosteroni.
(§7) Tests 9 to 13 show the nitrilase activity at 28° C., of these recombinant strains with respect to the methiononitrile, according to various operating conditions. The strain culture is performed as explained in example 6.1.The following Table 7 summarizes the conditions and the results of tests 9 to 13.

E. coli PXL2158 + 2035 [2] = experiment: Hydrolysis of methiononitrile with free and resin-fixed cells of E. coli PXL2158 + 2035; assay type: cell-based; conditions: test 15; free cells; dry cells 1.3 g/l; MetCN 50 mM; pH7; 28° C.
Method: The E. coli PXL 2158+2035 free cells are fixed on resin according to the technique described in U.S. Pat. No. 4,732,851, so as to form a biocatalyst.
CONDITIONS: volume=5 ml; potassium phosphate buffer=100 mM pH7, [MetCN]=50 mM; T 28° C.; kinetics over 3 h; DB=dry biocatalyst; DC=dry cells.
Two methiononitrile batches were tested: purified methiononitrile in the form of a sulfate and free methiononitrile.
CONDITIONS: volume=5 ml; potassium phosphate buffer=100 mM pH7; T 28° C.; kinetics over 3 h; *=percent with respect to the formed acid; DB=dry biocatalyst; DC=dry cells.

E. coli PXL2158 = experiment: Hydrolysis of methiononitrile with E. coli PXL2158 in suspension; assay type: cell-based; conditions: test 9; whole cells; MetCN 100 mM; DW 17.2 g/l; pH 7; 28° C.
Method: as §6, §7

T1 sequence (Q59329 entry or part of it): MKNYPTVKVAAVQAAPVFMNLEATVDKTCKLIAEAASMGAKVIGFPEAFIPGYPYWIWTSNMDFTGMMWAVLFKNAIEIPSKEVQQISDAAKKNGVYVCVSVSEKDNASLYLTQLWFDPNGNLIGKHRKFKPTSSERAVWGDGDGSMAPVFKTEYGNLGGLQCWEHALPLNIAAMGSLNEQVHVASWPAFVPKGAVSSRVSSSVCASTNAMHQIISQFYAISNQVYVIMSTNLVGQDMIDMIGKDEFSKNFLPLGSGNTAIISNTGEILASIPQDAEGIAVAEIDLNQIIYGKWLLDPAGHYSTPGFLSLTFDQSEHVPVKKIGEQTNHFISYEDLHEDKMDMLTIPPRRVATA

With N#CCCCCC(N)=O [5-Cyanovaleramide, 5-cyanovaleramide] the “RELATIVE ACTIVITY” value (purified nitrilase) was 28%.

With N#CCCCCC(=O)O [5-Cyanovalerate, 5-cyanovalerate] the “Activity Ub” value (E. coli TG1 pXL2158) was 8.3 μmols of adipate produced/h, the “Activity Ub” value (E. coli TG1 pXL2087; +IPTG, sonicated cells, DW 1.4 g/l, 1 ml, pH 5.2) was 25 μmols of adipate produced/h and the “Activity Ub” value (E. coli TG1 pXL2087; +IPTG, sonicated cells, DW 1.4 g/l, 2 ml, pH 7.0) was 8 μmols of adipate produced/h. The “Activity Ub” value (E. coli TG1 pXL2087; +IPTG, whole cells, DW 1.4 g/l, 1 ml, pH 4.0) was 28 μmols of adipate produced/h, the “Activity Ub” value (E. coli TG1 pXL2087; +IPTG, whole cells, DW 1.4 g/l, 1 ml, pH 5.2) was 27 μmols of adipate produced/h and the “Activity Ub” value (E. coli TG1 pXL2087; +IPTG, whole cells, DW 1.4 g/l, 2 ml, pH 7.0) was 8 μmols of adipate produced/h. The “Activity Ub” value (E. coli TG1 pXL2087; no IPTG, sonicated cells, DW 1.0 g/l, 1 ml, pH 5.2) was 13 μmols of adipate produced/h, the “Activity Ub” value (E. coli TG1 pXL2087; no IPTG, sonicated cells, DW 1.0 g/l, 1 ml, pH 7.0) was 3.2 μmols of adipate produced/h and the “Activity Ub” value (E. coli TG1 pXL2087; no IPTG, whole cells, DW 1.2 g/l, 2 ml, pH 4.0) was 10 μmols of adipate produced/h. The “Activity Ub” value (E. coli TG1 pXL2087; no IPTG, whole cells, DW 1.2 g/l, 2 ml, pH 5.2) was 14 μmols of adipate produced/h, the “Activity Ub” value (E. coli TG1 pXL2087; no IPTG, whole cells, DW 1.2 g/l, 2 ml, pH 7.0) was 3.4 μmols of adipate produced/h and the “Activity Ua” value (P. putida G2081 pXL2169) was 130 μmols of cyanovalerate produce. For the same molecule, the “Activity Ub” value (E. coli TG1; pH 5.2) was 0 μmols of adipate produced/h, the “Activity Ub” value (E. coli TG1; pH 7.0) was 0 μmols of adipate produced/h and the “Activity Ub” value (E. coli TG1 pXL2035,2158) was 70 μmols of adipate produced/h.

With C=CC#N [Acrylonitrile, acrylonitrile] the “RELATIVE ACTIVITY” value (purified nitrilase) was 23%.

With N#Cc1ccccc1 [Benzonitrile, benzonitrile] the “RELATIVE ACTIVITY” value (purified nitrilase) was 4%.

With CSCCC(N)C#N (stereo not drawn) [MetCN, methiononitrile] the nitrilase activity (E. coli PXL2158 + 2035 [1]; comment on Table 7) was “about 80 μmol of MEtCN/hxmg of DW”, the Initial specific activity (E. coli PXL2158 + 2035 [1]; test 10, MetCN 50 mM) was 77 μmol/h x mg of DW and the Initial specific activity (E. coli PXL2158 + 2035 [1]; test 11, MetCN 50 mM) was 62 μmol/h x mg of DW. The Initial specific activity (E. coli PXL2158 + 2035 [1]; test 12, MetCN 100 mM) was 73 μmol/h x mg of DW, the Initial specific activity (E. coli PXL2158 + 2035 [1]; test 13, MetCN 200 mM) was 61 μmol/h x mg of DW and the “activity relative to E. coli PXL2158 alone” value (E. coli PXL2158 + 2035 [1]; tests 9 and 10) was ~10 times. The “Specific Initial Activity” value (E. coli PXL2158 + 2035 [2]) was 63 μmol/hx mg DC and the Initial specific activity (E. coli PXL2158) was 8 μmol/h x mg of DW.

For CCC#N [Propionitrile, propionitrile], the “RELATIVE ACTIVITY” value (purified nitrilase) was 6%.
